Experimental data from publication PMC12406203 (Journal of Medicinal Chemistry, 2025).

Assays:
Assay in all cases: KINOMEscan
Assay type in all cases: binding
PAK4 = target: T1, PAK4 (Homo sapiens, UniProt O96013)
T1 construct: purchased Eurofins DiscoverX, LLC; host or cells: E. coli BL21-derived host (T7 phage) or HEK-293

LKB1 = target: T2, LKB1 (Homo sapiens, UniProt Q15831)
T2 construct: purchased Eurofins DiscoverX, LLC; host or cells: E. coli (BL21-derived, T7 phage) or HEK-293
T2 sequence (Q15831 1-433): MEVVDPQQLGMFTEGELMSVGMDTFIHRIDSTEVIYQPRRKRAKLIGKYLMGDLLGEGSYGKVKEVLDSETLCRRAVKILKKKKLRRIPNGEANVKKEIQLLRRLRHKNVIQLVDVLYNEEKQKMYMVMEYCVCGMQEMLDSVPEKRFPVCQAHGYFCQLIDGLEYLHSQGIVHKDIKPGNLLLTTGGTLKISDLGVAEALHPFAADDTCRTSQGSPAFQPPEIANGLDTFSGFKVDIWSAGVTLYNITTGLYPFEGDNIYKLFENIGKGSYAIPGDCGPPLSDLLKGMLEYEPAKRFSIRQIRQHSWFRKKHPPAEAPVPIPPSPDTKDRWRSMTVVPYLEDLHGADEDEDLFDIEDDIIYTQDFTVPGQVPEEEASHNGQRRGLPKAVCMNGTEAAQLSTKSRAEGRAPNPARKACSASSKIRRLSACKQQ

JNK2 = target: T3, JNK2 (Homo sapiens, UniProt P45984)
T3 construct: purchased Eurofins DiscoverX, LLC; host or cells: E. coli (BL21-derived, T7 phage) or HEK-293

LCK = target: T4, LCK (Homo sapiens, UniProt P06239)
T4 construct: purchased Eurofins DiscoverX, LLC; host or cells: E. coli (BL21-derived, T7 phage) or HEK-293

MAP3K4 = target: T5, MAP3K4 (Homo sapiens, UniProt Q9Y6R4)
T5 construct: purchased Eurofins DiscoverX, LLC; host or cells: E. coli (BL21-derived, T7 phage) or HEK-293

BTK = target: T6, BTK (Homo sapiens, UniProt Q06187)
T6 construct: purchased Eurofins DiscoverX, LLC; host or cells: E. coli BL21-derived (T7 phage) or HEK-293

ACVR1B = target: T7, ACVR1B (Homo sapiens, UniProt P36896)
T7 construct: purchased Eurofins DiscoverX, LLC; host or cells: E. coli BL21-derived (T7 phage) or HEK-293
T7 sequence (P36896 24-505): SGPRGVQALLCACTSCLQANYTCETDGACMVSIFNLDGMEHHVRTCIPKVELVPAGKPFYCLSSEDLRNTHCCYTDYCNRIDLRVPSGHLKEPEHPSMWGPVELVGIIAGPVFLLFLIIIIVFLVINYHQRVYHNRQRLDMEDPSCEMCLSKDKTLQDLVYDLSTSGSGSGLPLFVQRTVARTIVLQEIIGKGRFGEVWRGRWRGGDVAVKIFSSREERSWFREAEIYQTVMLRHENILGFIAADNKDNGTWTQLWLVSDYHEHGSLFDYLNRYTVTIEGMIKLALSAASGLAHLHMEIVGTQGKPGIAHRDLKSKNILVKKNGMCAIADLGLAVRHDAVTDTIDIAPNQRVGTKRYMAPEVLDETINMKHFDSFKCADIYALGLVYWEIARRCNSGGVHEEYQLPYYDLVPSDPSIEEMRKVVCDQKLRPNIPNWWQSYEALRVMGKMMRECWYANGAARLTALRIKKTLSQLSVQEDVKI

FGFR2 = target: T8, FGFR2 (Homo sapiens, UniProt P21802)
T8 construct: purchased Eurofins DiscoverX, LLC; host or cells: E. coli (T7 phage) or HEK-293

MLK1 = target: T9, MLK1 (Homo sapiens, UniProt P80192)
T9 construct: purchased Eurofins DiscoverX, LLC; host or cells: E. coli (BL21-derived, T7 phage) or HEK-293

IKKβ = target: T10, IKKβ (Homo sapiens, UniProt O14920)
T10 construct: purchased Eurofins DiscoverX, LLC; host or cells: E. coli (T7 phage) or HEK-293
T10 sequence (O14920 1-756): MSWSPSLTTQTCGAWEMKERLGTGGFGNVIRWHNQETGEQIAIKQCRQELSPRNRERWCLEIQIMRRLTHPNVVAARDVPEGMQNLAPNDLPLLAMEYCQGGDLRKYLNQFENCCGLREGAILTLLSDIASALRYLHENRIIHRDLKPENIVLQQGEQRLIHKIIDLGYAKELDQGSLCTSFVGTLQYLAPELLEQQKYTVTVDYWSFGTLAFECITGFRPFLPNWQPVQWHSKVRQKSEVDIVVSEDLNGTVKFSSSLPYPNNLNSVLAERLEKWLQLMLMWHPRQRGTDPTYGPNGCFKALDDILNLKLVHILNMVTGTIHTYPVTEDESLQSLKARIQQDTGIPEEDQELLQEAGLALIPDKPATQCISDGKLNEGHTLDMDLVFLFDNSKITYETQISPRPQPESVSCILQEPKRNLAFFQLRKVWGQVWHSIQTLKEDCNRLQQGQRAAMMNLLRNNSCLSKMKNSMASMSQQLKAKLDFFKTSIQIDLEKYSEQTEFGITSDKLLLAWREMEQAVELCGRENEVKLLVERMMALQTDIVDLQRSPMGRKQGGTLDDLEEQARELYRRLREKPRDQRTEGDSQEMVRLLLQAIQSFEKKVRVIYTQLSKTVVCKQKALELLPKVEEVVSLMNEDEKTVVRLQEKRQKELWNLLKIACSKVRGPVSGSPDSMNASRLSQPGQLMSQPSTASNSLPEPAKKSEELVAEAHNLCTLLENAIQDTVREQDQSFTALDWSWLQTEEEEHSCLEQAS

T1 sequence (O96013 whole entry): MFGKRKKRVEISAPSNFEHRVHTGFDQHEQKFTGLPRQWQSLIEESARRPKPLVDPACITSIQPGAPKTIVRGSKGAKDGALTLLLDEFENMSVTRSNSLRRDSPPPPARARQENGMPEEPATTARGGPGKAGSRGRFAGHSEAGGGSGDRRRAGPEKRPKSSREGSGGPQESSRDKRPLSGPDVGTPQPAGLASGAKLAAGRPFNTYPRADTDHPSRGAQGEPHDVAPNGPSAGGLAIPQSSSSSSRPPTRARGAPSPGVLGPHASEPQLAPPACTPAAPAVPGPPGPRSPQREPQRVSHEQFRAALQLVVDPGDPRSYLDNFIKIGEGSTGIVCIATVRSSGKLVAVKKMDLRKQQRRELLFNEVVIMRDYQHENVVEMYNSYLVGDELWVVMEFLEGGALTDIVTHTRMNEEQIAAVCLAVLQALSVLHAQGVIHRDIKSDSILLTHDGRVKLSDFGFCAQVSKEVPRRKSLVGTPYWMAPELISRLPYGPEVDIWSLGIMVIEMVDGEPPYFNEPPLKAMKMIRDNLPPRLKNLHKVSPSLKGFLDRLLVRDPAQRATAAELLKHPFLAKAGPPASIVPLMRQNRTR
T4 sequence (P06239 whole entry): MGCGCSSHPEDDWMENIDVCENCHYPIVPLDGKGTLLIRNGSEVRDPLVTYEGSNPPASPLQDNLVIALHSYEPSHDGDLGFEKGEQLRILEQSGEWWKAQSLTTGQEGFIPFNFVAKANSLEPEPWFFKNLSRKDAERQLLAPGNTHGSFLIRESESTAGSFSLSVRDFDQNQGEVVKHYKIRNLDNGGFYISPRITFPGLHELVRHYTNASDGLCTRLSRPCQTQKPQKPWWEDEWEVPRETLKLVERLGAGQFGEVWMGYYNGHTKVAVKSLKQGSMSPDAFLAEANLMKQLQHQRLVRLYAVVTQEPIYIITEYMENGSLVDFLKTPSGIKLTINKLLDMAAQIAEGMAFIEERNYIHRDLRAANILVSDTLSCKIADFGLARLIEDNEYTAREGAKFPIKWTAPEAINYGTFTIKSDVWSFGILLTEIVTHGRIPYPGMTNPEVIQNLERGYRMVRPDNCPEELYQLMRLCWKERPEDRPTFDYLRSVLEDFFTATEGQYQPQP
T3 sequence (P45984 whole entry): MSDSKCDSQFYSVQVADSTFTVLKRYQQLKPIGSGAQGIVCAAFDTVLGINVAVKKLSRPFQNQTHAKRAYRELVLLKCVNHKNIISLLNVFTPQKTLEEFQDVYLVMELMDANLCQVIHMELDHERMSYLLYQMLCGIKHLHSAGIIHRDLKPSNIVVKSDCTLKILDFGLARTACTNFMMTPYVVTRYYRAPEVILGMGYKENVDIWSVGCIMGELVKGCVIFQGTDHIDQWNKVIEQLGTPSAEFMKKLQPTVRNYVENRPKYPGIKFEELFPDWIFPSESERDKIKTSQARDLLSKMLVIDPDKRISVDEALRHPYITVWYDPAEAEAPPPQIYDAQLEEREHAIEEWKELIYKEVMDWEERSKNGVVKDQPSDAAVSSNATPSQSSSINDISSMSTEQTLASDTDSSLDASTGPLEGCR
T8 sequence (P21802 22-821): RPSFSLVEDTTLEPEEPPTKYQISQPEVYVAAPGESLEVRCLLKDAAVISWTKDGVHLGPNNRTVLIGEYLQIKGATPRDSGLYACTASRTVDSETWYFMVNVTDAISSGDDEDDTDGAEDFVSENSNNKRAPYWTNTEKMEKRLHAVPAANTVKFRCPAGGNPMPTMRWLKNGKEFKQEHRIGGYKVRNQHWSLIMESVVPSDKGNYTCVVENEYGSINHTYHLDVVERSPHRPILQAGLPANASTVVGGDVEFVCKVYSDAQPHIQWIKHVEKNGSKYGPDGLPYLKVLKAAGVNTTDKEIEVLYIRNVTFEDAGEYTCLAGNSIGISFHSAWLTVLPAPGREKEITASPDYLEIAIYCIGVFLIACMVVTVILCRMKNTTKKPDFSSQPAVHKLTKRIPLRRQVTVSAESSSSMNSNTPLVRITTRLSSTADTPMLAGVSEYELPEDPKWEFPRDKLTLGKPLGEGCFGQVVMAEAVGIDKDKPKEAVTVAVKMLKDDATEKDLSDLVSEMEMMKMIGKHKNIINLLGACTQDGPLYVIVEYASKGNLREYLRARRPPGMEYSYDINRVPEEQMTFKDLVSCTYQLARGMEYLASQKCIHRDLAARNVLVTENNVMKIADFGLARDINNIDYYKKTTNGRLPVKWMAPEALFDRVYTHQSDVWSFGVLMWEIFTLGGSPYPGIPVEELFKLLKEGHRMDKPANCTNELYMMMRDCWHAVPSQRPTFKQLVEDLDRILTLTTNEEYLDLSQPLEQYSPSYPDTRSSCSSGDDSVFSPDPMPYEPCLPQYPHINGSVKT
T6 sequence (Q06187 whole entry): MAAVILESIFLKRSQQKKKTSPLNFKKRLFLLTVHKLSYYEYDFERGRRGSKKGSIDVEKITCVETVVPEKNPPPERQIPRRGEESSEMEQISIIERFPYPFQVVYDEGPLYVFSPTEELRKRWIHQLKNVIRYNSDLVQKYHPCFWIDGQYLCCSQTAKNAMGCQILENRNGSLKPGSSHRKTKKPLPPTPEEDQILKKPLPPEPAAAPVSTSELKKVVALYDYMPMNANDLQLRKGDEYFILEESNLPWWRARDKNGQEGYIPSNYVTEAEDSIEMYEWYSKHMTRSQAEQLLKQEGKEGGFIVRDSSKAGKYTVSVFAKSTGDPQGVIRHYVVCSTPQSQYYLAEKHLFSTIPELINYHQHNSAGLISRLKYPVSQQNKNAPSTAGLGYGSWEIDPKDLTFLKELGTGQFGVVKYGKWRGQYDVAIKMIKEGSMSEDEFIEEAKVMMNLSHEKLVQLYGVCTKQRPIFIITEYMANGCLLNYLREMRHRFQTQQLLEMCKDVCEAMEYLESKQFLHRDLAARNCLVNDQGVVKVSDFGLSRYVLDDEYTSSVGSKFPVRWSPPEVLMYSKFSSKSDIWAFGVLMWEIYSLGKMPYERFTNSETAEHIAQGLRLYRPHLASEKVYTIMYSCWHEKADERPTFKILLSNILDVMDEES
T5 sequence (Q9Y6R4 whole entry): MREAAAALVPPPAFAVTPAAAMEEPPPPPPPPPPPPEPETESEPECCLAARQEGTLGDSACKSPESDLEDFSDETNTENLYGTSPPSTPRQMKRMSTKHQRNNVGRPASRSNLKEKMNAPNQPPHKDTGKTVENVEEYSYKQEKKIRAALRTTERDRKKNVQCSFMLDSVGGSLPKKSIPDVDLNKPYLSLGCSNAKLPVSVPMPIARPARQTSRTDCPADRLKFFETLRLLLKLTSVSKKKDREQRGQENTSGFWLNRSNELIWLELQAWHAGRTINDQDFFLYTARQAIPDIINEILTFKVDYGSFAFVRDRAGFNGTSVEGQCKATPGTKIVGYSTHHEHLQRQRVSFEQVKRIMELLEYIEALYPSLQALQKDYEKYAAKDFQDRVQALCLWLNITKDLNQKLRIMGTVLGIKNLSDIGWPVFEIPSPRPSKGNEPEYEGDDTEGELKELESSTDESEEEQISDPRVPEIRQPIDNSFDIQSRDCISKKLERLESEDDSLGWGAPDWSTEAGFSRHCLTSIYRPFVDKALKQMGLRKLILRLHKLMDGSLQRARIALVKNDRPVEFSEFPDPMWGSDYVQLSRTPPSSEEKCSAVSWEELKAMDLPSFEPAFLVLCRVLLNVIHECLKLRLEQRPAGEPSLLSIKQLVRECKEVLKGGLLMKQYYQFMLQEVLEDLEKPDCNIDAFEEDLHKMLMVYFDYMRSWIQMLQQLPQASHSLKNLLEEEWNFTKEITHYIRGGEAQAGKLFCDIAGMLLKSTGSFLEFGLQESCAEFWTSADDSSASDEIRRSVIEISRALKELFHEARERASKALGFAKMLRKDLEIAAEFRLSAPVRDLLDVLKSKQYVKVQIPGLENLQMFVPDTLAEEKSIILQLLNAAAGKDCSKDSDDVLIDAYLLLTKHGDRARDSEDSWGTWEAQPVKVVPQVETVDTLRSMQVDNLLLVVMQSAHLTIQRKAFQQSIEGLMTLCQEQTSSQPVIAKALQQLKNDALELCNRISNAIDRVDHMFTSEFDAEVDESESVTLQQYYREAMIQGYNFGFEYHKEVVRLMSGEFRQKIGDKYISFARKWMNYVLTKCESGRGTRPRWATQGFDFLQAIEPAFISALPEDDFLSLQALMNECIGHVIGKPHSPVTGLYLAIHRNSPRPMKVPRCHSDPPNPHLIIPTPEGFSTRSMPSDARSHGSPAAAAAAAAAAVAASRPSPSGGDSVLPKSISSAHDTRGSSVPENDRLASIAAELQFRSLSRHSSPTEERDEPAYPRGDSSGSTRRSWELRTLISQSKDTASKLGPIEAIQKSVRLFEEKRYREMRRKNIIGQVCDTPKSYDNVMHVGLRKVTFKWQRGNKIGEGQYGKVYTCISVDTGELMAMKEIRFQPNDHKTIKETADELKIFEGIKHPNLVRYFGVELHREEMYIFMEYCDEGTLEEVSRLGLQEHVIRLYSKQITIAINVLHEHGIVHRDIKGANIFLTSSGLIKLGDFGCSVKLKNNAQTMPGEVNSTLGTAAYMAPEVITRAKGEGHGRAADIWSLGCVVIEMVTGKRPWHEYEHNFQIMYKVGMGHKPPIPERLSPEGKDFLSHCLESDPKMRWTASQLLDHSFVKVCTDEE

Compound: CC(C)Cn1ncc2cc(Cc3ccc(F)cc3F)c(C(=O)NCCN(C)C)cc21 [Compound 94, 5-(2,4-Difluorobenzyl)-N-(2-(dimethylamino)ethyl)-1-isobutyl-1H-indazole-6-carboxamide]
- RA @ 1000nM (PAK4): 97%
- RA @ 10000nM (PAK4): 96%
- RA @ 1000nM (LKB1): 100%
- RA @ 10000nM (LKB1): 96%
- RA @ 1000nM (JNK2): 52%
- RA @ 10000nM (JNK2): 8.3%
- RA @ 1000nM (LCK): 100%
- RA @ 10000nM (LCK): 97%
- RA @ 1000nM (MAP3K4): 49%
- RA @ 10000nM (MAP3K4): 100%
- RA @ 1000nM (BTK): 100%
- RA @ 10000nM (BTK): 100%
- RA @ 1000nM (ACVR1B): 100%
- RA @ 10000nM (ACVR1B): 100%
- RA @ 1000nM (FGFR2): 95%
- RA @ 10000nM (FGFR2): 100%
- RA @ 1000nM (MLK1): 100%
- RA @ 10000nM (MLK1): 100%
- RA @ 1000nM (IKKβ): 89%
- RA @ 10000nM (IKKβ): 89%

Compound: CN(C)CCNC(=O)c1cc2c(cnn2CC2CCCCC2)cc1Cc1ccc(F)cc1F [Compound 95, 1-(Cyclohexylmethyl)-5-(2,4-difluorobenzyl)-N-(2-(dimethylamino)ethyl)-1H-indazole-6-carboxamide]
- RA @ 1000nM (PAK4): 100%
- RA @ 10000nM (PAK4): 88%
- RA @ 1000nM (LKB1): 100%
- RA @ 10000nM (LKB1): 86%
- RA @ 1000nM (JNK2): 44%
- RA @ 10000nM (JNK2): 3.8%
- RA @ 1000nM (LCK): 94%
- RA @ 10000nM (LCK): 100%
- RA @ 1000nM (MAP3K4): 100%
- RA @ 10000nM (MAP3K4): 60%
- RA @ 1000nM (BTK): 100%
- RA @ 10000nM (BTK): 100%
- RA @ 1000nM (ACVR1B): 100%
- RA @ 10000nM (ACVR1B): 100%
- RA @ 1000nM (FGFR2): 100%
- RA @ 10000nM (FGFR2): 100%
- RA @ 1000nM (MLK1): 100%
- RA @ 10000nM (MLK1): 90%
- RA @ 1000nM (IKKβ): 93%
- RA @ 10000nM (IKKβ): 80%
